Here are results for 7 substances from patent publication US20220275372A1, “CONJUGATE AND USES THEREOF” (priority 2019, published 2022).

A value given as a limit tells only on which side of the number the result lay.

Data set [1] is described as follows: ELISA biodistribution of PMO in tissues of treated HSA-LR mice. To be noted: for delivery of PMO to muscle: 2 weeks after IV administration. It counts as in vivo, mouse. The method, then:
Animal model and ASO injections. […] The intravenous injections in HSA-LR or C57BL/6 mice were performed by single or multiple administrations via the tail vein. […] Multiple injections were done at 2 weeks apart. Myotonia was evaluated and tissues were harvested 2 weeks after the last injection. For long-term experiments, tissues were harvested 3 months after the injection. For toxicology measurements, tissues were harvested after 1 week. Urine was tested by ELISAs (R&D cat# MKM100) with samples diluted to fit within standard curve. Values were normalised to urinary creatinine levels (Harwell) to account for urine protein concentration
ELISA based measurements of oligonucleotide concentrations in tissues. […] The probe was used to detect peptide-PMOs or naked PMO concentrations in eight different tissues (brain, kidney, liver, lung, heart, diaphragm, gastrocnemius and quadriceps) from treated HSA-LR mice.

The test system of data set [2] is Mbnl-dependent transcripts (Clcn1 exon 7a, Serca exon22, Mbnl1 exon 5, Ldb3 exon11). Nature of the data set: RT-PCR splicing correction in muscle of HSA-LR mice. The data set is classed as in vivo, mouse. To be noted: for splicing defects (clcn1 exon 7a, serca exon22, mbnl1 exon 5): 30 mg/kg IV, gastrocnemius and quadriceps of HSA-LR mice, two weeks after treatment; for splicing of Clcn1 exon 7a, Serca exon22, Mbnl1 exon 5 and Ldb3 exon11: 30 and 40 mg/kg, gastrocnemius of HSA-LR mice; for duration of splicing correction after treatment / splicing correction after single low doses: HSA-LR mice; for splicing correction after single low doses: single low doses (5 and 7.5 mg/kg). The method, then:
(§1) Animal model and ASO injections. Experiments were carried out in the University of Oxford or in the “Centre d'études fonctionnelles” (Faculté de Médecine Sorbonne University) according to UK and French legislation respectively (Ethics committee approval #1760-2015091512001083v6). The intravenous injections in HSA-LR or C57BL/6 mice were performed by single or multiple administrations via the tail vein. Doses of 5, 7.5, 12.5, 30 or 40 mg/kg of peptide-PMO-CAG7 and 12.5 or 200 mg/kg of PMO were diluted in 0.9% saline and given at a volume of 5-6 μL/g of body weight. Multiple injections were done at 2 weeks apart. Myotonia was evaluated and tissues were harvested 2 weeks after the last injection. For long-term experiments, tissues were harvested 3 months after the injection. For toxicology measurements, tissues were harvested after 1 week. Urine was tested by ELISAs (R&D cat# MKM100) with samples diluted to fit within standard curve. Values were normalised to urinary creatinine levels (Harwell) to account for urine protein concentration
RNA isolation, RT-PCR and qPCR analysis. For mice tissues: prior to RNA extraction, muscles were disrupted in TriReagent (Sigma-Aldrich) using Fastprep system and Lysing Matrix D tubes (MP biomedicals). For human cells: prior to RNA extraction, cells were lysed in a proteinase K buffer (500 mM NaCl, 10 mM Tris-HCl, pH 7.2, 1.5 mM MgCl2, 10 mM EDTA, 2% SDS and 0.5 mg/ml of proteinase K) for 45 min at 55° C. Total RNAs were isolated using TriReagent according to the manufacturer's protocol. One microgram of RNA was reverse transcribed using M-MLV first-strand synthesis system (Life Technologies) according to the manufacturer's instructions in a total of 20 μL. One microliter of cDNA preparation was subsequently used in a semi-quantitative PCR analysis according to standard protocol (ReddyMix, Thermo Scientific).
PCR amplification was carried out for 25-35 cycles within the linear range of amplification for each gene. PCR products were resolved on 1.5-2% agarose gels, ethidium bromide-stained and quantified with ImageJ software. The ratios of exon inclusion were quantified as a percentage of inclusion relative to total intensity of isoform signals. To quantify the mRNA expression, real-time PCR was performed according to the manufacturer's instructions. PCR cycles were a 15-min denaturation step followed by 50 cycles with a 94° C. denaturation for 15 s, 58° C. annealing for 20 s and 72° C. extension for 20 s.

In another data set the test system is WT mice. Put plainly: Recovery time after injection, WT mice. It counts as in vivo, mouse. As to conditions: 30 mg/kg, age 8-12 weeks. The method, then: as §1
In another data set the test system is human hepatocytes. Nature of the data set: Cell viability in human hepatocytes. The data set is classed as cell-based. As to conditions: 40 μM. The method, then: (§2) Cell culture and Peptide-PMO treatment. Immortalized myoblasts from healthy individual or DM1 patient with 2600 CTG repeats were cultivated in a growth medium consisting of a mix of M199:DMEM (1:4 ratio; Life technologies) supplemented with 20% FBS (Life technologies), 50 μg/ml gentamycin (Life technologies), 25 μg/ml fetuin, 0.5 ng/ml bFGF, 5 ng/ml EGF and 0.2 μg/ml dexamethasone (Sigma-Aldrich). Myogenic differentiation was induced by switching confluent cell cultures to DMEM medium supplemented with […] insulin (Sigma-Aldrich) for myoblasts. For treatment, WT or DM1 cells are differentiated for 4 days. Then, medium was changed with fresh differentiation medium with peptide-PMO conjugates at a 1, 2 ,5 10, 20 or 40 μM concentration. Cells were harvested for analysis 48 h after treatment. Cell viability was quantified in after 2 days of transfection of peptide-PMOs at 40 uM in human hepatocytes or at a 1, 2 ,5 10, 20 or 40 μM concentration in human myoblasts using a fluorescent-based assay (Promega).

A further data set deals with human myoblasts. Nature of the data set: Cell viability in human myoblasts. To be noted: 1-40 μM, 48 hours. It counts as cell-based. The method, then:
as §2

The next data set has as its system mice. Nature of the data set: Mortality in mice. To be noted: mouse, in vivo.
The mark [3] stands for this setting: 600 mg/kg (3 injections at 200 mg/kg) IV, 2 weeks post administration.

Regarding Ac-RBRRBRFQILYBRBR-B [DPEP1.9], the “delivery of PMO to muscle” value in data set [1] is given as “able to deliver the PMO to muscle successfully”. In data set [2], the “splicing defects (clcn1 exon 7a, serca exon22, mbnl1 exon 5)” value is recorded as “corrected to wild type levels”; the “splicing of Clcn1 exon 7a, Serca exon22, Mbnl1 exon 5 and Ldb3 exon11” value was “splicing normalization to wild type levels”; the “duration of splicing correction after treatment” value is reported as “at least 3 months”; the “splicing correction after single low doses” value is “significant”.

For Ac-RBRRBRFQILYRBHBH-B [DPEP3.8], in data set [2], the “splicing defects (clcn1 exon 7a, serca exon22, mbnl1 exon 5)” value is “corrected to wild type levels”; the “splicing of Clcn1 exon 7a, Serca exon22, Mbnl1 exon 5 and Ldb3 exon11” value is listed as “splicing normalization to wild type levels”; the “duration of splicing correction after treatment” value is reported as “at least 3 months”; the “splicing correction after single low doses” value is “significant”.

In the case of Ac-RBRRBRFQILYBRBR-E [DPEP1.9b], the “delivery of PMO to muscle” value in data set [1] was “able to deliver the PMO to muscle successfully”. In the data set with WT mice, the “recovery time after injection, time AV ± SD” value amounted to 15 min.

Consider Ac-RBRRBRRFQILYRBHBH-Ab [DPEP3.1a], for which the “recovery time after injection, time AV ± SD” value in the data set with WT mice was found to be 10 min.

Ac-RXRRBRR-FQILY-RBRXR-B [Pip9b2-PMO]: the “cell mortality in human hepatocytes” value in the data set on human hepatocytes is > 50%. Further, the “cell viability of human myoblasts” value in the data set with human myoblasts is listed as “induced cell mortality at lower doses”.

Turning to “CAGCAGCAGCAGCAGCAGCAG (all phosphorodiamidate morpholino (PMO); Cell-penetrating peptide conjugated to the 3' end in the conjugates, further chemistry not fully specified) [Naked PMO]”, in data set [1] (setting [3]), the “pM in Tissue: Diaphragm” value stood at 30 pM, the “pM in Tissue: Gastrocnemius” value is recorded as 18 pM, the “pM in Tissue: Heart” value amounted to 198 pM and the “pM in Tissue: Kidney” value was determined as 426748 pM. Further, in data set [1] (setting [3]), the “pM in Tissue: Liver” value was 252 pM and the “pM in Tissue: Lung” value is listed as 113 pM. The “PMO levels in all tissues tested” value in data set [1] (3 injections at 200 mg/kg, 2 weeks post administration) was “low to non-detectable levels”. For the same substance, the “PMO detected in muscle tissues” value in data set [1] (two weeks after 3x200 mg/kg naked PMO IV) is “low pM”.

As for Ac-RXRRBRRXR-YQFLI-RXRBRXR-B [pip6a], the “cell mortality in human hepatocytes” value in the data set on human hepatocytes is reported as > 50%. In the data set on mice, the “dose that cannot be tested without causing high rates of mortality in mice” value is listed as > 20 mg/kg. The “cell viability of human myoblasts” value in the data set on human myoblasts is given as “induced cell mortality at lower doses”.
